Results as given in PMC7765298, “EGFR-Binding Peptides: From Computational Design towards Tumor-Targeting of Adeno-Associated Virus Capsids” (International Journal of Molecular Sciences, 2020).

Assays:
EGFR = conditions: dissociation constant described for EGFR-binding peptide GE11; cited from earlier work
A431 cells = assay: Wound healing assay; assay type: cell-based; conditions: 1 nM recombinant human EGF in RPMI medium, positive control
Procedure: Since biophysical measurements are confounded by the intrinsic diversity of receptor conformations and imaging of moderate binding is difficult, we assessed peptide activity using a cell-based functional assay. Epidermoid tumor cell line A431 depends on EGF signaling for proliferation and migration, which can be assessed by wound healing assays monitoring the closure of a scratch in a cell lawn. A431 cells were grown to a confluent cell monolayer, serum-starved, and scratched. The resulting gap was monitored by microscopy and measured over a 6-h period (Figure 3A). As a positive, control cells were treated with 1 nM recombinant human EGF (hEGF) in RPMI medium. Cell migration in µm/h was calculated from a linear regression of the gap area over time plotted against time (Figure S6). […]
Figure 3 Effect of EGFR-directed peptides in the presence of the natural EGFR-ligand EGF in a wound healing assay with A431 cells. […] The yellow cell borders were detected by image recognition using ImageJ. […] (B) Bar chart presenting the cell migration velocity as determined from microscopy images. […]
Figure S6. […] The gap area over time is analyzed for each sample.
Areas were calculated using ImageJ. Linear regressions were calculated to determine to growth rate. […]

Substance | Kd (EGFR) [µM] | increase in cell migration compared to negative control (buffer) (A431 cells)
YHWYGYTPQNVI [GE11] | 459 | 
hEGF: recombinant human epidermal growth factor, positive control |  | three-fold increase
